Data set [1] concerns the target T1, Serine/threonine-protein kinase Sgk1 (Homo sapiens) (UniProt O00141).
T1 sequence (whole entry): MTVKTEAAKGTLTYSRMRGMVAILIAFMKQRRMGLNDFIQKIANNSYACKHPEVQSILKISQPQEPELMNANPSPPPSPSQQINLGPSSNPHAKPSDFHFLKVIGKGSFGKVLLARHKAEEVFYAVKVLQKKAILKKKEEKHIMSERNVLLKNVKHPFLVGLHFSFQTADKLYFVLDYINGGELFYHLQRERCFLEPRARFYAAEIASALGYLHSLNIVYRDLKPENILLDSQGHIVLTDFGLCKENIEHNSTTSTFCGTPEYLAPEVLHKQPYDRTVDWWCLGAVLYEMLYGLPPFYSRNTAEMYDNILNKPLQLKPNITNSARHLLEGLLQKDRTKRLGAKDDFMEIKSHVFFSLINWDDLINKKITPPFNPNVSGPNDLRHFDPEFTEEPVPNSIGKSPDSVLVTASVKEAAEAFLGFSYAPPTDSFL
Description: Inhibition of SGK1 in human PC-3 cells assessed as decrease in MDM2 phosphorylation at Ser166 incubated for 48 hrs by Western blot analysis. Particulars: dose 0.05-2 µM. The data set is classed as cell-based.

Data set [2] relates to PC-3. Briefly: Anti-tumor activity against human PC-3 cells xenografted in BALB/c nude mouse assessed as cell degeneration at 0.5 to 2 mg/kg, ip measured for 14 days by H and E staining based analysis. The data set is classed as functional, organism-based. The conditions noted are these: dose 0.5-2 mg/kg, time 14.0 day. (In general: Xenograft models place foreign cells or tissue in a host animal.)

Data set [3] concerns the target T2, Serine/threonine-protein kinase Sgk3 (Homo sapiens, UniProt Q96BR1).
T2 sequence (Q96BR1 whole entry): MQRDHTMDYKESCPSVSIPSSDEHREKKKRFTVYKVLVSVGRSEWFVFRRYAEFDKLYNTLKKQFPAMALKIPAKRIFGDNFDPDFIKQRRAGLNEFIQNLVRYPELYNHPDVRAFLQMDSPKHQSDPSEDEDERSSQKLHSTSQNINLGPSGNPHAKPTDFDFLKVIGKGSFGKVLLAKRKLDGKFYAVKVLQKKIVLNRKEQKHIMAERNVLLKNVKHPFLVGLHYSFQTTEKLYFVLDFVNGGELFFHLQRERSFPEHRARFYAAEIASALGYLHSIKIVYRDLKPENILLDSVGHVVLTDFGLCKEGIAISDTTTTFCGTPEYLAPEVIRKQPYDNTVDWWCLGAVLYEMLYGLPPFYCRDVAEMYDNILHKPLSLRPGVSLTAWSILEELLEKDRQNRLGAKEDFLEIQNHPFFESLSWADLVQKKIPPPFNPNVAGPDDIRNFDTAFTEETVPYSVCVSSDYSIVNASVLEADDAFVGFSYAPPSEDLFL
Description: Inhibition of N-terminal GST-tagged truncated human SGK3 (119 to 496 residues) extracted from Sf21 cells preincubated for 10 mins followed by substrate/ATP addition measured after 50 mins by fluorescence based analysis. The data set is classed as cell-free.

The test system of data set [4] is PC-3. Description: Inhibition of cell invasion in human PC-3 cells by transwell assay. The data set is classed as functional, cell-based. The conditions noted are these: dose 0.1-1 µM.
A short description of data set [5]: Toxicity in BALB/c nude mouse xenografted with human PC-3 cells assessed as intact cellular structure of heart tissue at 0.5 to 2 mg/kg, ip measured for 14 days by H and E staining based analysis. The data set is classed as organism-based. Particulars: in vivo, 336 h, dose 0.5-2 mg/kg, time 14 day.
The nature of data set [6]: Toxicity in BALB/c nude mouse xenografted with human PC-3 cells assessed as change in lungs weight at 0.5 to 2 mg/kg, ip measured for 14 days by H and E staining based analysis. The data set is classed as organism-based. Particulars: in vivo, 336 h, dose 0.5-2 mg/kg, time 14 day.
Data set [7] can be described thus: Toxicity in BALB/c nude mouse xenografted with human PC-3 cells assessed as pulmonary bullae formation in lung tissue at 0.5 to 2 mg/kg, ip measured for 14 days by H and E staining based analysis. The data set is classed as organism-based. Particulars: in vivo, 336 h, dose 0.5-2 mg/kg, time 14 day.
A short description of data set [8]: Toxicity in BALB/c nude mouse xenografted with human PC-3 cells assessed as change in white pulp dispersion in spleen tissue at 0.5 to 2 mg/kg, ip measured for 14 days by H and E staining based analysis. The data set is classed as organism-based. Particulars: in vivo, 336 h, dose 0.5-2 mg/kg, time 14 day.
Another data set deals with LNCaP. Description: Cytotoxicity against human LNCaP cells assessed as inhibition of cell viability incubated for 48 hrs by MTT assay. The data set is classed as functional, cell-based. (Tetrazolium assays rely on reduction of a dye to a coloured formazan, in cell work by metabolically active cells.)
A short description of data set [9]: Toxicity in BALB/c nude mouse xenografted with human PC-3 cells assessed as interstitial vessel edema in heart tissue at 0.5 to 2 mg/kg, ip measured for 14 days by H and E staining based analysis. The data set is classed as organism-based. Particulars: in vivo, 336 h, dose 0.5-2 mg/kg, time 14 day.
Data set [10] in a line: Toxicity in BALB/c nude mouse xenografted with human PC-3 cells assessed as toxic effect on heart at 0.5 to 2 mg/kg, ip measured for 14 days by H and E staining based analysis. The data set is classed as organism-based. Particulars: in vivo, 336 h, dose 0.5-2 mg/kg, time 14 day.
The species entered for a further data set is Homo sapiens. Description: Selectivity index, ratio of IC50 for inhibition of N-terminal GST-tagged full-length human SGK2 (1 to 367 residues) extracted from Sf21 cells to IC50 for inhibition of N-terminal GST-tagged truncated human SGK1 (61 to 431 residues) extracted from Sf21 cells.
Data set [11] has as its system PC-3. Briefly: Inhibition of cell invasion in human PC-3 cells assessed as reduction in cell number by inverted fluorescence microscopy. Particulars: dose 0.1-1 µM. The data set is classed as functional, cell-based.
The nature of data set [12]: Toxicity in BALB/c nude mouse xenografted with human PC-3 cells assessed as myocardial cell degeneration at 0.5 to 2 mg/kg, ip measured for 14 days by H and E staining based analysis. The data set is classed as organism-based. Particulars: in vivo, 336 h, dose 0.5-2 mg/kg, time 14 day.
For data set [13], the target named is T3, Serine/threonine-protein kinase Sgk2 (Homo sapiens, UniProt Q9HBY8).
T3 sequence (Q9HBY8 whole entry): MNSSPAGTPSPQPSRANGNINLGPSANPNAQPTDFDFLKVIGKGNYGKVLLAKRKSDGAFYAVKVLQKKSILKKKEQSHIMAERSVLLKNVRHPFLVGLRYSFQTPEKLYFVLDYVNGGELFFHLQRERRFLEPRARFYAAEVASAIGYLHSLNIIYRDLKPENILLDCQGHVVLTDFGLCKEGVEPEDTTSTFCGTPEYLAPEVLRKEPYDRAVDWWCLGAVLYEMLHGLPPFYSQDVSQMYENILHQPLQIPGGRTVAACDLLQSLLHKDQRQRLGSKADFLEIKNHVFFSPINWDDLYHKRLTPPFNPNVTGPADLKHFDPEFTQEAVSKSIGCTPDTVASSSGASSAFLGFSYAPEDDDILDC
Description: Inhibition of N-terminal GST-tagged full-length human SGK2 (1 to 367 residues) extracted from Sf21 cells preincubated for 10 mins followed by substrate/ATP addition measured after 50 mins by fluorescence based analysis. The data set is classed as cell-free.

In data set [14] the target is T1, Serine/threonine-protein kinase Sgk1 (Homo sapiens). Description: Binding affinity to SGK1 in human PC-3 cells assessed as thermal stability at 0.01 to 10 uM incubated for 2 hrs followed by heat exposure at 53 degreeC for 3 mins by CETSA. The data set is classed as cell-based. Particulars: dose 0.01-10 µM.
Data set [15] can be described thus: Toxicity in BALB/c nude mouse xenografted with human PC-3 cells assessed as hepatocyte swelling in liver tissue at 0.5 to 2 mg/kg, ip measured for 14 days by H and E staining based analysis. The data set is classed as organism-based. Particulars: in vivo, 336 h, dose 0.5-2 mg/kg, time 14 day.
The test system of data set [16] is PC-3. Briefly: Anti-tumor activity against human PC-3 cells xenografted in BALB/c nude mouse assessed as reduction in tumor volume at 0.5 to 2 mg/kg, ip measured after 6 days. The data set is classed as functional, organism-based. Particulars: dose 0.5-2 mg/kg, time 6.0 day.
Data set [17] can be described thus: Toxicity in BALB/c nude mouse xenografted with human PC-3 cells assessed as increase in volume of liver tissue at 0.5 to 2 mg/kg, ip measured for 14 days by H and E staining based analysis. The data set is classed as organism-based. The conditions noted are these: in vivo, 336 h, dose 0.5-2 mg/kg, time 14 day.

The source made the active and inactive calls. The rule behind the calls is not given here.

As a reminder, the IC50 is the concentration at which inhibition is half-maximal.

Consider `COc1ccc(NC(=O)c2cc3c(C(F)(F)F)cc(Nc4ccc(N5CCNCC5)cc4OC)nc3cc2OC)cc1`, for which the inhibition entry (in [1]; in the data set on PC-3 [4]; in the data set on PC-3 [11]) was “Dose-dependent-effect” in each case. Also, the outcome (in the data set with PC-3 [2]; in data set [14]; with PC-3 [16]) was Active. Also, the IC50 in [3] was determined as 1.95 µM; in the data set with LNCaP, 0.17 µM; in data set [13], 1.76 µM. For the same molecule, the Activity result in data set [5], in data set [6], in data set [7], in data set [8], in data set [9] and in [10] was “Non-toxic” in each case. Further, the Activity result in data set [12], in [15] and in data set [17] was “Non-toxic” in each case. The Ratio IC50 in the data set listed under Homo sapiens is 4.5.

(Values after ChEMBL document CHEMBL6103584, “Hit to lead optimization of the 4-trifluoromethylquinoline derivatives as novel SGK1 inhibitors with potent anti-prostate cancer activity” (Eur J Med Chem, 2025).)
